Data reported in patent publication US10308629B2, “1H-pyrrol-3-amines” (BAYER PHARMA AKTIENGESELLSCHAFT, priority 2015, dated 2019).

Each molecule was assayed against (recombinant) catalytic domain of human Bub1 (amino acids 704-1085) (Homo sapiens (Human), UniProt O43683) (assay: Bub1 kinase assay (TR-FRET)). Settings: ATP 10 μM, peptide substrate 1 μM, 60 min at 22° C., read-out: Inhibition of Bub1 kinase IC50.
Type: biochemical
Text: Bub1-inhibitory activities of compounds described in the present invention were quantified using a time-resolved fluorescence energy transfer (TR-FRET) kinase assay which measures phosphorylation of the synthetic peptide Biotin-Ahx-VLLPKKSFAEPG (SEQ ID No. 1) (C-terminus in amide form), purchased from e.g. Biosyntan (Berlin, Germany) by the (recombinant) catalytic domain of human Bub1 (amino acids 704-1085), expressed in Hi5 insect cells with an N-terminal His6-tag and purified by affinity-(Ni-NTA) and size exclusion chromatography.
In a typical assay 11 different concentrations of each compound (0.1 nM, 0.33 nM, 1.1 nM, 3.8 nM, 13 nM, 44 nM, 0.15 μM, 0.51 μM, 1.7 μM, 5.9 μM and 20 μM) were tested in duplicate within the same microtiter plate. To this end, 100-fold concentrated compound solutions (in DMSO) were previously prepared by serial dilution (1:3.4) of 2 mM stocks in a clear low volume 384-well source microtiter plate (Greiner Bio-One, Frickenhausen, Germany), from which 50 nl of compounds were transferred into a black low volume test microtiter plate from the same supplier. Subsequently, 2 μL of Bub1 (the final concentration of Bub1 was adjusted depending on the activity of the enzyme lot in order to be within the linear dynamic range of the assay: typically ˜200 ng/mL were used) in aqueous assay buffer [50 mM Tris/HCl pH 7.5, 10 mM magnesium chloride (MgCl2), 200 mM potassium chloride (KCl), 1.0 mM dithiothreitol (DTT), 0.1 mM sodium ortho-vanadate, 1% (v/v) glycerol, 0.01% (w/v) bovine serum albumine (BSA), 0.005% (v/v) Trition X-100 (Sigma), 1× Complete EDTA-free protease inhibitor mixture (Roche)] were added to the compounds in the test plate and the mixture was incubated for 15 min at 22° C. to allow pre-equilibration of the putative enzyme-inhibitor complexes before the start of the kinase reaction, which was initiated by the addition of 3 μL 1.67-fold concentrated solution (in assay buffer) of adenosine-tri-phosphate (ATP, 10 μM final concentration) and peptide substrate (1 μM final concentration). The resulting mixture (5 μL final volume) was incubated at 22° C. during 60 min. and the reaction w as stopped by the addition of 5 μL of an aqueous EDTA-solution (50 mM EDTA, in 100 mM HEPES pH 7.5 and 0.2% (w/v) bovine serum albumin) which also contained the TR-FRET detection reagents (0.2 μM streptavidin-XL665 [Cisbio Bioassays, Codolet, France] and 1 nM anti-phosho-Serine antibody [Merck Millipore, cat. #35-002] and 0.4 nM LANCE EU-W1024 labeled anti-mouse IgG antibody [Perkin-Elmer, product no. AD0077, alternatively a Terbium-cryptate-labeled anti-mouse IgG antibody from Cisbio Bioassays can be used]). The stopped reaction mixture was further incubated 1 h at 22° C. in order to allow the formation of complexes between peptides and detection reagents. Subsequently, the amount of product was evaluated by measurement of the resonance energy transfer from the Eu-chelate-antibody complex recognizing the Phosphoserine residue to the streptavidin-XL665 bound to the biotin moiety of the peptide. To this end, the fluorescence emissions at 620 nm and 665 nm after excitation at 330-350 nm were measured in a TR-FRET plate reader, e.g. a Rubystar or Pherastar (both from BMG Labtechnologies, Offenburg, Germany) or a Viewlux (Perkin-Elmer) and the ratio of the emissions (665 nm/622 nm) was taken as indicator for the amount of phosphorylated substrate. The data were normalised using two sets of control wells for high−(=enzyme reaction without inhibitor=0%=Minimum inhibition) and low−(=all assay components without enzyme=100%=Maximum inhibition) Bub1 activity. IC50 values were calculated by fitting the normalized inhibition data to a 4-parameter logistic equation (Minimum, Maximum, IC50, Hill; Y=Max+(Min−Max)/(1+(X/IC50)Hill)).

Sequence of (recombinant) catalytic domain of human Bub1 (amino acids 704-1085) (O43683 704-1085): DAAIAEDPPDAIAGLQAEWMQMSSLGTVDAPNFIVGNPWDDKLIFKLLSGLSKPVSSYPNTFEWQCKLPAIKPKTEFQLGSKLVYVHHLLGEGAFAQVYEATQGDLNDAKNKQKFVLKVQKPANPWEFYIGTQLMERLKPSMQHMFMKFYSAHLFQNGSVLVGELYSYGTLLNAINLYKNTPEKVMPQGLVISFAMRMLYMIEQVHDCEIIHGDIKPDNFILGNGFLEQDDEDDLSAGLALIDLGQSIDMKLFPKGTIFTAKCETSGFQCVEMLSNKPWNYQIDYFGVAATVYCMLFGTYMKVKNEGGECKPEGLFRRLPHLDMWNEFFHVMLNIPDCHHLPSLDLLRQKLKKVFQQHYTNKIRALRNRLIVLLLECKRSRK

IC50 | Molecule
17 nM | 1-Fluoro-N-4-[[(4aS,5aS) or (4aR,5aR)]-5a-methyl-4-oxo-3-(phenylamino)-1,4,4a,5,5a,6-hexahydrocyclopropa[f]indol-2-yl]pyridin-2-ylcyclopropanecarboxamide [Example 30]
22 nM | 1-Methyl-N-4-[[(4aR,5aR) or (4aS,5aS)]-5a-methyl-4-oxo-3-(phenylamino)-1,4,4a,5,5a,6-hexahydrocyclopropa[f]indol-2-yl]pyridin-2-yl-1H-pyrazole-5-carboxamide [Example 43]
53 nM | 2-Fluoro-2-methyl-N-4-[[(4aR,5aR) or (4aS,5aS)]-5a-methyl-4-oxo-3-(phenylamino)-1,4,4a,5,5a,6-hexahydrocyclopropa[f]indol-2-yl]pyridin-2-ylpropanamide [Example 41]
19 nM | (4aR,5aR or 4aS,5aS)-3-(Phenylamino)-2-(pyridin-4-yl)-4a,5,5a,6-tetrahydrocyclopropa[f]indol-4(1H)-one [Example 13]
12 nM | N-{4-[[(4aS,5aS) or (4aR,5aR)]-3-anilino-5a-methyl-4-oxo-1,4,4a,5,5a,6-hexahydrocyclopropa[f]indol-2-yl]pyridin-2-yl}-3-fluoro-4-methoxybenzamide [Example 51]
7 nM | N-{4-[[(4aS,5aS) or (4aR,5aR)]-3-anilino-5a-methyl-4-oxo-1,4,4a,5,5a,6-hexahydrocyclopropa[f]indol-2-yl]pyridin-2-yl}-2,6-difluorobenzamide [Example 47]
5 nM | N-4-[[(7R) or (7S)]-7-Methyl-4-oxo-3-(phenylamino)-1,4,5,6,7,8-hexahydrocyclohepta[b]pyrrol-2-yl]pyridin-2-ylacetamide [Example 39]
18 nM | N-4-[[(4aR,5aR) or (4aS,5aS)]-5a-Methyl-4-oxo-3-(phenylamino)-1,4,4a,5,5a,6-hexahydrocyclopropa[f]indol-2-yl]pyridin-2-yl-1H-pyrazole-3-carboxamide [Example 45]

The remaining lines, values behind:

Molecule | IC50
N-4-[(4aR,5aR or 4aS,5aS)-5a-Methyl-4-oxo-3-(phenylamino)-1,4,4a,5,5a,6-hexahydrocyclopropa[f]indol-2-yl]pyridin-2-ylacetamide [Example 19] | 8 nM
(1S,2S)-2-Fluoro-N-4-[[(4aR,5aR) or (4aS,5aS)]-5a-methyl-4-oxo-3-(phenylamino)-1,4,4a,5,5a,6-hexahydrocyclopropa[f]indol-2-yl]pyridin-2-ylcyclopropanecarboxamide [Example 37] | 11 nM
C[C@@]12C[C@@H]1C(=O)c1c([nH]c(-c3ccnc(NC(=O)C4CC4)c3)c1Nc1ccccc1)C2=O (relative stereo) [Example 32, N-4-[rel-(4aS,5aR)-5a-Methyl-4,6-dioxo-3-(phenylamino)-1,4,4a,5,5a,6-hexahydrocyclopropa[f]indol-2-yl]pyridin-2-ylcyclopropanecarboxamide] | 30 nM
CC1(C)[C@@H]2C[C@H]1C(=O)c1c2[nH]c(-c2ccnc(N)c2)c1Nc1ccccc1 (relative stereo) [Example 2, rel-(5R,7S)-2-(2-Aminopyridin-4-yl)-6,6-dimethyl-3-(phenylamino)-1,5,6,7-tetrahydro-4H-5,7-methanoindol-4-one] | 1160 nM
CC1(C)[C@@H]2C[C@H]1C(=O)c1c2[nH]c(-c2ccnc(NC(=O)NC3CC3)c2)c1Nc1ccccc1 (relative stereo) [Example 9, 1-cyclopropyl-3-4-[rel-(5R,7S)-6,6-Dimethyl-4-oxo-3-(phenylamino)-4,5,6,7-tetrahydro-1H-5,7-methanoindol-2-yl]pyridin-2-ylurea] | 240 nM
CC1(C)[C@@H]2C[C@H]1C(=O)c1c2[nH]c(-c2ccncc2F)c1Nc1ccccc1 (relative stereo) [Example 10, rel-(5R,7S)-2-(3-Fluoropyridin-4-yl)-6,6-dimethyl-3-(phenylamino)-1,5,6,7-tetrahydro-4H-5,7-methanoindol-4-one] | 35 nM
C[C@@]12Cc3[nH]c(-c4ccnc(NS(C)(=O)=O)c4)c(Nc4ccccc4)c3C(=O)[C@@H]1C2 (relative stereo) [Example 27, N-{4-[rel-(4aR,5aR)-3-Anilino-5a-methyl-4-oxo-1,4,4a,5,5a,6-hexahydrocyclopropa[f]indol-2-yl]pyridin-2-yl}methanesulfonamide] | 630 nM
O=C1c2c([nH]c(-c3ccncc3)c2Nc2ccccc2)C[C@H]2C[C@@H]12 (relative stereo) [Example 12, rel-(4aR,5aR)-3-(Phenylamino)-2-(pyridin-4-yl)-4a,5,5a,6-tetrahydrocyclopropa[f]indol-4(1H)-one] | 7 nM
(5S,7R or 5R,7S)-2-(2-Aminopyridin-4-yl)-6,6-dimethyl-3-(phenylamino)-1,5,6,7-tetrahydro-4H-5,7-methanoindol-4-one [Example 4] | 2930 nM
CN1C[C@H]2C(=O)c3c([nH]c(-c4ccncc4)c3Nc3ccccc3)C[C@H]2C1=O (relative stereo) [Example 11, rel-(4aR,7aS)-6-Methyl-3-(phenylamino)-2-(pyridin-4-yl)-1,4a,5,6,7a,8-hexahydropyrrolo[3,4-f]indole-4,7-dione] | 19 nM
CC1(C)[C@@H]2C[C@H]1C(=O)c1c2[nH]c(-c2ccnc(NC(=O)C3CC3)c2)c1Nc1ccccc1 (relative stereo) [Example 6, N-4-[rel-(5R,7S)-6,6-Dimethyl-4-oxo-3-(phenylamino)-4,5,6,7-tetrahydro-1H-5,7-methanoindol-2-yl]pyridin-2-ylcyclopropanecarboxamide] | 63 nM
CC(=O)Nc1cc(-c2[nH]c3c(c2Nc2ccccc2)C(=O)CCC(C)C3)ccn1 (racemic) [Example 25, N-{4-[(7RS)-3-Anilino-7-methyl-4-oxo-1,4,5,6,7,8-hexahydrocyclohepta[b]pyrrol-2-yl]pyridin-2-yl}acetamide] | 7 nM
CCNC(=O)Nc1cc(-c2[nH]c3c(c2Nc2ccccc2)C(=O)[C@@H]2C[C@H]3C2(C)C)ccn1 (relative stereo) [Example 8, 1-4-[rel-(5R,7S)-6,6-Dimethyl-4-oxo-3-(phenylamino)-4,5,6,7-tetrahydro-1H-5,7-methanoindol-2-yl]pyridin-2-yl-3-ethylurea] | 375 nM
